Results as given in patent publication US6489327B1, “Tryptase inhibitors” (Max-Planck-Gesellschaft zur Fordrungder Wisenschaften, e.V., priority 1998, dated 2002).
Structures can show the parent of a compound that is named as a salt.

What follows are compounds tested against human tryptase (assay: Inhibition of human tryptase: apparent dissociation constant Kiapp, chromogenic substrate tos-Gly-Pro-Arg-pNA). Conditions: apparent dissociation constant in presence of substrate; human tryptase from lung tissue, 50 μg of heparin/ml.
Type: biochemical
Source text: The documented pathophysiological effects of mast cell tryptase are brought about directly by the enzymic activity of the protease. Accordingly, they are reduced or blocked by inhibitors which inhibit the enzymatic activity of the tryptase. The equilibrium dissociation constant Ki of the enzyme-inhibitor complex is a suitable measure of the affinity of a reversible inhibitor for the target protease. This Ki value can be determined by measuring the effect of the inhibitor on the tryptase-induced cleavage of a chromogenic peptide-p-nitroanilide substrate or a fluorogenic peptide-aminomethylcoumarin substrate.
The dissociation constants of the tryptase-inhibitor complexes are determined under equilibrium conditions in accordance with the general recommendations of Bieth (Bieth J G, Pathophysiological interpretation of kinetic constants of protease inhibitors, Bull. Europ. Physiopath. Resp. 16:183-195, 1980) and the methods of Sommerhoff et al. (Sommerhoff C P et al., A. Kazal-type inhibitor of human mast cell tryptase: Isolation from the medical leech Hirudo medicinalis, characterization, and sequence analysis, Biol. Chem. Hoppe-Seyler 375: 685-694, 1994).
Human tryptase is prepared in a pure state from lung tissue; the specific activity of the isolated protease, determined by means of titration, is normally 85% of the theoretical value. Constant quantities of tryptase are incubated with increasing quantities of the inhibitors in the presence of 50 μg of heparin/ml for stabilizing the protease. After the equilibrium has been established between the reaction partners, the remaining enzyme activity is determined after adding the peptide-p-nitroanilide substrate tos-Gly-Pro-Arg-pNA, the cleavage of which is monitored at 405 nm over a period of 3 min. Alternatively, the residual enzymic activity can also be determined using fluorogenic substrates. The apparent dissociation constants Kiapp (i.e. in the presence of substrate) are subsequently ascertained by nonlinear regression by fitting the enzyme rates to the general equation for reversible inhibitors (Morrison J F, Kinetics of the reversible inhibition of enzyme-catalysed reactions by tight-binding inhibitors, Biochim. Biophys. Acta 185, 269-286, 1969):
V1/V0=1−{Et+lt+Kiapp−[(Et+lt+Kiapp)^2−4Etlt]^½}/2Et
In this equation, V1 and V0 are the rates in the presence and absence of the inhibitor, respectively, and Et and lt are the concentrations of the tryptase and of the inhibitor.
The apparent dissociation constants which were determined for the compounds according to the invention are given in Table A below, in which the numbers of the compounds correspond to the numbers of the compounds in the examples.
Work on NCc1cccc(C(=O)N2CCN(C(=O)c3cccc(C(=O)N4CCN(C(=O)c5cccc(CN)c5)CC4)n3)CC2)c1 [Compound 1, Pyridine-2,6-dicarbobis[4-(3-aminomethylbenzoyl)-1-piperazide]] yielded a Ki of 3000 nM.
In the case of NCc1cccc(C(=O)NC2CCN(C(=O)c3cccc(C(=O)N4CCC(NC(=O)c5cccc(CN)c5)CC4)n3)CC2)c1 [Compound 11, Pyridine-2,6-dicarbobis[4-(3-aminomethylbenzoylamino)-1-piperidide]], the Ki is reported as 30 nM.
With NCC1CCC(C(=O)NC2CCN(C(=O)c3cccc(C(=O)N4CCC(NC(=O)C5CCC(CN)CC5)CC4)n3)CC2)CC1 (stereo not drawn) [Compound 15, Pyridine-2,6-dicarbobis[4-(4-aminomethylcyclohexylcarbonylamino)-1-piperidide]] the Ki was 3000 nM.
Compound NCC1CCC(C(=O)N2CCN(C(=O)Nc3ccc(Oc4ccc(NC(=O)N5CCN(C(=O)C6CCC(CN)CC6)CC5)cc4)cc3)CC2)CC1 (stereo not drawn) [Compound 17, Bis{4-[4-(4-aminomethyl)cyclohexanoylpiperazin-1-yl]-carbonyl}-4,4′-diaminodiphenyl ether dihydrochloride] has a Ki of 22000 nM.
NCc1cccc(C(=O)N2CCN(C(=O)Nc3ccc(Oc4ccc(NC(=O)N5CCN(C(=O)c6cccc(CN)c6)CC5)cc4)cc3)CC2)c1 [Compound 21, Bis{4-[4-(3-aminomethyl)benzoylpiperazin-1-yl]-carbonyl}-4,4′-diaminodiphenyl ether dihydrochloride] showed a Ki of 100 nM.
With NCC1CCC(C(=O)NC2CCN(C(=O)NC3CCC(CC4CCC(NC(=O)N5CCC(NC(=O)C6CCC(CN)CC6)CC5)CC4)CC3)CC2)CC1 (stereo not drawn) [Compound 23, Di{4-[4-(4-aminomethyl)cyclohexanoylamino]piperidin-1-ylcarbamoyl}cyclohexylmethane dihydrochloride] the Ki was 800 nM.
In the case of CC(C)(c1ccc(OCC(=O)NCc2ccc(NC(=N)N)cc2)cc1)c1ccc(OCC(=O)NCc2ccc(NC(=N)N)cc2)cc1 [Compound 31, 2,2-Bis-[4-(4-guanidinylbenzylamino)carbonylmethoxyphenyl]propane dihydroacetate], the Ki is reported as 200 nM.
CC(C)(c1ccc(OCC(=O)NCC(=O)NCCCCN)cc1)c1ccc(OCC(=O)NCC(=O)NCCCCN)cc1 [Compound 34, 2,2-Bis-[4-(10-amino-3,6-diaza-2,5-dioxodecyloxy)-phenyl]propane dihydrochloride] was tested, and the Ki was 2000 nM.
In the case of CC(C)(c1ccc(OC(=O)N2CCN(C(=O)NCc3ccc(CN)cc3)CC2)cc1)c1ccc(OC(=O)N2CCN(C(=O)NCc3ccc(CN)cc3)CC2)cc1 [Compound 36, 2,2-Bis-{4-[4-(4-aminomethylbenzylcarbamoyl)-1-piperazinylcarbonyloxy]phenyl}propane dihydrochloride], the Ki is reported as 28 nM.
